Laboratory results from patent US11529299B2, “Hair care compositions comprising a 2-pyridinol-n-oxide material and an iron chelator” (The Procter & Gamble Company, priority 2017, dated 2022).

Tests used:
Malassezia furfur = assay: Minimum inhibitory concentration (MIC), growth inhibition of Malassezia by culture optical density; assay type: cell-based; conditions: material alone, OD <= 20% of untreated control, 33° C., two days, M. Dixon medium pH 5.5, average of two replicates; for MIC: Malassezia furfur, 48 h
Experimental: To measure the growth inhibition properties of test materials against Malassezia, the following protocol is followed. The Malassezia furfur is cultured in 50 ml M. […] The pH is adjusted to 5.5 using 1N HCl. The media is autoclaved. Starting cultures are prepared by incubating freezer stocks with shaking at 33° C. The inoculum of Malassezia cells is 5.5×10^5 cfu/ml. Cells are incubated at 33° C. for two days. After the two day incubation optical density is read and background subtracted. MIC values are determined by averaging the results from two replicate experiments.

M.Furfur 7892 cells = assay: Modified Fractional Inhibitory Concentration (MFIC), anti-Malassezia activity of combinations; assay type: cell-based, Malassezia furfur; conditions: titrated from 400 ppm; for MFIC: Table 3, chelator as Material #2 combined with the 2-pyridinol-N-oxide material at 1/2 its MIC; for Modified Fractional Inhibitory Concentration (MFIC): lowest concentration of Material #2 inhibiting growth with Material #1 (1-hydroxy-4-methyl-6-(2,4,4-trimethylpentyl)-2-pyridone monoethanolamine salt) at 1/2 its MIC, 33° C., 2 days
Experimental: A Modified Fractional Inhibitory Concentration (MFIC) is used to determine the combinatorial effects of two chemicals on anti-Malassezia activity in a tissue culture setting. […] I. […] Low levels of M.Furfur 7892 cells are inoculated into each well of a 96 well plate. • 3. […] Plates are incubated at 33° C. for 2 days. • 6. Optical densities (OD's) are then determined using a spectrophotometer. II. […] Inhibition of growth is determined if the culture optical density is less than or equal to ⅕ (20%) of the culture optical density of the untreated control • 2.

[1] = from NIST Standard Reference Database 46; cited from earlier work

Minimum inhibitory concentration (MIC) (Malassezia furfur) [ppm]	SMILES	MIC (Malassezia furfur) [µg/mL]	MFIC (M.Furfur 7892 cells) [ppm]	Log K1 (iron binding affinity) [1]	Modified Fractional Inhibitory Concentration (MFIC) (M.Furfur 7892 cells) [ppm]
	Cc1cc(CC(C)CC(C)(C)C)n(O)c(=O)c1.NCCO (centres unmarked) [1-hydroxy-4-methyl-6-(2,4,4-trimethylpentyl)-2-pyridone monoethanolamine salt]	25			
	O=C(O)CC(O)(CC(=O)O)C(=O)O [Citric Acid]		>400	11	
	CC(=O)N(O)CCCCCNC(=O)CCC(=O)N(O)CCCCCNC(=O)CCC(=O)N(O)CCCCCN [Desferrioxamine]	> 400	5	31	5
>400	O=C(O)CN(CCN(CC(=O)O)CC(=O)O)CCN(CC(=O)O)CC(=O)O [Diethylenetriaminepentaacetic acid]		37	28	37
>400	O=P(O)(O)CN(CCN(CP(=O)(O)O)CP(=O)(O)O)CCN(CP(=O)(O)O)CP(=O)(O)O [Diethylenetriaminepentakis(methylenephosphonic acid)]		50	23	50
	CC(C(=O)O)N(CC(=O)O)CC(=O)O (centres unmarked) [Methylglycine diacetic acid (MGDA), Methylglycine diacetic acid]		>400	16	
